Series [1] concerns prostate cancer. As to conditions: TRAMP mouse; Wechter et al. 2000; cited from earlier work.
Series [2] concerns LNCaP-FGC.
In series [3] the test system is MDA-MB-231.
For series [4], the system named is HCT-116. Description: Cytotoxicity by MTT assay, confirmed by FACS propidium iodide uptake.
For series [5], the system named is A549.
Series [6] has as its system A549. Description: Cytotoxicity by MTT assay, confirmed by FACS propidium iodide uptake.
In series [7] the test system is normal B cells. Description: Viability of normal B lymphocytes (anti-CD19) by DiOC6 fluorescence. It is filed as cell-based, human. As to conditions: 1.0 mM etodolac, 24 hours. As to the method: Peripheral blood lymphocytes from a normal donor were cultured with 1.0 mM etodolac for 24 hours. Then B lymphocytes were identified by staining with anti-CD19 antibody, and viability was assessed by DiOC6 fluorescence. […] When the same viability assay was run with purified CLL cells from the peripheral blood of a CLL patient, the results were different. […] More than 95% of the treated cells were malignant B lymphocytes.

Series [8] relates to OVCAR-3.
The subject of series [9] is CLL cells. Description: In vitro survival of CLL cells taken from patients before and after etodolac tablets. As to conditions: patient two. The class given is in vivo, human. As to the method:
Heparinized blood was taken from two patients ([…]) with CLL. Then each patient immediately took a 400 mg etodolac tablet, and a second tablet 12 hours later. After another 12 hours, a second blood specimen was obtained. The CLL cells were isolated and their survival in vitro were compared in RPMI 1640 medium containing 10% autologous plasma, as described in Example 1. The circles show CLL cells before etodolac treatment. In FIGS. 6-7, the upward pointing triangles represent CLL cell viability after etodolac treatment, wherein the cells are dispersed in medium containing the pre-treatment plasma. The downward pointing triangles are CLL cells after treatment maintained in medium with the post-treatment plasma.
FIG. 8 is a flow cytometric analysis of CLL cells from patient two before and after etodolac treatment. […]
To conduct the flow cytometric analysis, the mitochondrial transmembrane potential was analyzed by 3,3′ dihexyloxacarboncyanide iodide (DiOC6), cell membrane permeability by propidium iodide (PI)3 and mitochondrial respiration by dihydrorhodamine 123 (DHR) (See J. A. Royall et al., Arch. Biochem. Biophys., 302, 348 (1993)). […] Cells were analyzed within 30 minutes in a Becton Dickinson FAC-Scalibur cytofluorometer. After suitable […], fluorescence was recorded at different wavelength: DiOC6 and DHR at 525 nm (Fl-1) and PI at 600 nm (FL-3).

Series [10] concerns Bag-1. Description: Bag-1 level in LNCaP cells by SDS-PAGE immunoblot. The following applies: for effect on the etodolac-induced fall in Bag-1 levels: co- or pre-incubation with etodolac, MG-132 at 5.0 μM.
In series [11] the test system is SW260.
For series [12], the system named is Mcl-1. Put plainly: Mcl-1 level in LNCaP cells by SDS-PAGE immunoblot. The following applies: for effect on the etodolac-induced fall in Mcl-1 levels: co- or pre-incubation with etodolac, MG-132 at 5.0 μM.
In series [13] the test system is OVCAR-3. Description: Cytotoxicity by MTT assay, confirmed by FACS propidium iodide uptake.
For series [14], the system named is Alva-31.
For series [15], the system named is CLL cells. Put plainly: Viability of CLL cells in culture, erythrocin B exclusion assay. It is filed as cell-based, human. As to conditions: for killing of CLL cells by either drug alone: fludarabine 10 nM or etodolac 10 μM alone, 48 hours, FIG. 3.
Series [16] concerns Bcl-2 and Bax. Put plainly: Bcl-2 and Bax levels in LNCaP cells. As to conditions: etodolac incubation; data not shown.
The subject of series [17] is PC-3. Put plainly: Cytotoxicity by MTT assay, confirmed by FACS propidium iodide uptake.
For series [18], the system named is MDA-MB-231. The series is described as above.
Series [19] relates to Alva-31. The series is described as above.
Series [20] relates to HCT-116.
Series [21] has as its system normal peripheral blood lymphocytes (PBL). Put plainly: Viability of normal PBLs, erythrocin B exclusion assay. It is filed as cell-based, human. The following applies: FIG. 1; only at this concentration.
Series [22] has as its system PC-3.
The conditions of series [23]: cited from earlier work.
Series [24] has as its system prostate cancer tissue.
From the text: The tissues were next fixed in 4% paraformaldehyde in PBS, embedded in paraffin, sectioned and stained with hematoxylin and eosin.
The subject of series [25] is LNCaP-FGC. Put plainly: Cytotoxicity by MTT assay, confirmed by FACS propidium iodide uptake.
In series [26] the target is MRP (Homo sapiens, UniProt P33527). The following applies: WO98/18490; cited from earlier work.
MRP, sequence (P33527 whole entry): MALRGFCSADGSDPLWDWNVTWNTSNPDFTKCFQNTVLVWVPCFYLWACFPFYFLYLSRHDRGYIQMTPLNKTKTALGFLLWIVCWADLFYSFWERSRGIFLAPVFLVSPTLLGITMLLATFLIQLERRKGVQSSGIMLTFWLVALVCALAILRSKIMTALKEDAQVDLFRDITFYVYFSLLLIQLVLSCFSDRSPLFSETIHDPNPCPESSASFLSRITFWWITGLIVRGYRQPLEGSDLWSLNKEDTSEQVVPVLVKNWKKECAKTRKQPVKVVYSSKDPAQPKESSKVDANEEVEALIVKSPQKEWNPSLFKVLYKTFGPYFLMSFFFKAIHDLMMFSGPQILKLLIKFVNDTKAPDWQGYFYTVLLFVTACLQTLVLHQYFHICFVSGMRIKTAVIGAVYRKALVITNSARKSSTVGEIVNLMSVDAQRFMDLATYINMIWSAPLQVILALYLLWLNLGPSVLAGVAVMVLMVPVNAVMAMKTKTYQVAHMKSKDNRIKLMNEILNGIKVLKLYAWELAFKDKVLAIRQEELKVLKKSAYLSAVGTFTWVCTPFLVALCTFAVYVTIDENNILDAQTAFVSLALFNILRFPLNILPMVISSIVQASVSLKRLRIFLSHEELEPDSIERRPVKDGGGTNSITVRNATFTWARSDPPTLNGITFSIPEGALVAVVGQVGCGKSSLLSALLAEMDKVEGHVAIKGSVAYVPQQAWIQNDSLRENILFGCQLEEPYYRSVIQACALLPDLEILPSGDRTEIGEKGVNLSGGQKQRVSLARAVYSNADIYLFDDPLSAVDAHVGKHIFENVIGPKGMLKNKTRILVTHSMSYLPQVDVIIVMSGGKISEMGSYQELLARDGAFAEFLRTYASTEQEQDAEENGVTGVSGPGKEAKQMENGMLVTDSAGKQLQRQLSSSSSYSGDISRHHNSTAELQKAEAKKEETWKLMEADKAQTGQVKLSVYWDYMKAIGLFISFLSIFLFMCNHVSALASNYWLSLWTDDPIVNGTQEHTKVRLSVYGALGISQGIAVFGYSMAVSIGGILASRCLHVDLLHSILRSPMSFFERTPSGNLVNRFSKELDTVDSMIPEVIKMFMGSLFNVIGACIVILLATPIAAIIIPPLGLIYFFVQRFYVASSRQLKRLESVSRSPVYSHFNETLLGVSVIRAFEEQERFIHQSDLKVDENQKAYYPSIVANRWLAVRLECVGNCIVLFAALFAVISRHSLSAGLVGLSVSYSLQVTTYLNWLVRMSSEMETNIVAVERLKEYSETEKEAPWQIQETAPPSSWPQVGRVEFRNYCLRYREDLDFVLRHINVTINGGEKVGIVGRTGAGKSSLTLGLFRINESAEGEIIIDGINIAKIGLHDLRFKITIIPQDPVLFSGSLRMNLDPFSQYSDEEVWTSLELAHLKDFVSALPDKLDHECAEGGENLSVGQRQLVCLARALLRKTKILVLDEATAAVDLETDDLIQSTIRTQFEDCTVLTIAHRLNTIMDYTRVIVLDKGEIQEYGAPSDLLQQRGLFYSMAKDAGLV
The test system of series [27] is B-cell CLL cells. The following applies: Bellosillo et al., Blood 1998; cited from earlier work.
Series [28] concerns adjuvant polyarthritis. As to conditions: reduction in paw volume of rats with adjuvant polyarthritis, prostaglandin synthetase inhibitory activity; Demerson et al.; cited from earlier work.
For series [29] the following is noted: in vivo.
Series [30] has as its target PPAR-γ (Mus musculus, UniProt P37238). The following applies: RAW264.7, 24 hours; concentrations readily achieved in human plasma; FIG. 13.
Where [31] appears, read: 100 μM etodolac, as early as two hours.

Read-outs that look alike come from different tables or passages of the source. Residues, ends and D or L forms follow the SMILES beside them. *: point of attachment. Cbz = O=C(OCc1ccccc1)*; CH2F = FC*

PPAR-γ, sequence (P37238 31-505 limits assumed): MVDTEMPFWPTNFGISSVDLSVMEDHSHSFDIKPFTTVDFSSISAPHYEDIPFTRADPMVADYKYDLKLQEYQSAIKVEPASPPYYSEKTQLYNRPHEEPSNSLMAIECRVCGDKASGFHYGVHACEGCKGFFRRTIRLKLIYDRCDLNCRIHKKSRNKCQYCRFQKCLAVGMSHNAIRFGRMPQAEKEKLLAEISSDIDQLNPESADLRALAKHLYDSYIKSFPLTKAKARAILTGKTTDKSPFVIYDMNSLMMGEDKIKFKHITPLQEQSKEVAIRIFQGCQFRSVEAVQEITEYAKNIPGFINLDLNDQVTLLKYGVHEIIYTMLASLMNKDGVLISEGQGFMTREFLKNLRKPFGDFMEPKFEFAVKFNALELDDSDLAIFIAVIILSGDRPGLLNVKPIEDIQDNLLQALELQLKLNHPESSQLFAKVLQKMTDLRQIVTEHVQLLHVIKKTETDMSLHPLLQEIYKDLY

`C[C@@H](C(=O)O)c1ccc(-c2ccccc2)c(F)c1` [R-flurbiprofen]: in series [1], the “progression of prostate cancer” value is recorded as “inhibited progression of prostate cancer”.

As for `CCc1cccc2c3c([nH]c12)C(CC)(CC(=O)O)OCC3` (stereo not drawn) [Etodolac R/S, 1,8-diethyl-1,3,4,9-tetrahydro[3,4-6]indole-1-acetic acid], the IC50 in [2] is 400 ± 35 µM; in series [3] it was over 1000 µM; in series [5] it was over 1000 µM; in series [8] it was over 1000 µM; in [11], 1000 ± 120 µM; in series [14], over 1000 µM. The concentration for half-maximal inhibition (IC50) in [20] worked out at 450 ± 15 µM; in [22] it was 340 ± 20 µM. The Phenoty entry was “Sensitive” in series [4] (HCT-116, sensitivity of the cell line to etodolac); “Resistant” in series [6] (A549, sensitivity of the cell line to etodolac); “Resistant” in series [11] (SW260, sensitivity of the cell line to etodolac); “Resistant” in [13] (OVCAR-3, sensitivity of the cell line to etodolac); “Sensitive” in series [17] (PC-3, sensitivity of the cell line to etodolac); “Resistant” in series [18] (MDA-MB-231, sensitivity of the cell line to etodolac). Also, the Phenoty result in series [19] (Alva-31, sensitivity of the cell line to etodolac) is “Resistant”; in [25] (LNCaP-FGC, sensitivity of the cell line to etodolac), “Sensitive”. In addition, the “viability of normal B cells compared to control cultures” value in series [7] is “did not reduce the viability”. Also, the “apoptotic CLL cells (low DiOC6 staining, left lower box) after versus before treatment” value in series [9] (flow cytometry, detectable at 12 hours, increases after 24 hours, FIG. 8) is “much higher after the drug”. Moreover, the “in vitro survival of CLL cells after treatment compared to before treatment” value in [9] (two 400 mg tablets 12 hours apart, FIG. 6) is recorded as “shortened survival”. In series [10] (setting [31]), the Bag-1 levels result was “fell”. In [12] (setting [31]), the Mcl-1 levels entry is reported as “fell”. The CLL cells killed in series [15] (200 μM, 48 hour exposure, FIG. 2) was found to be 50%. Moreover, the “killing of CLL cells by either drug alone” value in series [15] is recorded as “ineffective”. In addition, the “Bcl-2 and Bax levels” value in series [16] was “did not alter”. Moreover, the “concentration at which significant death of normal PBLs occurred” value in [21] was determined as 800 µM. The elimination half-life in series [23] (in vivo) was 6 to 8 h. Further, the “effect on normal basal cells in prostatectomy samples” value in [24] was “did not affect”.

Regarding `Nc1nc(F)nc2c1ncn2[C@@H]1O[C@H](CO)[C@@H](O)[C@@H]1O` [fludarabine], in series [15], the “killing of CLL cells by either drug alone” value is listed as “ineffective”.

With `CN1C(C(=O)Nc2ccccn2)=C(O)c2ccccc2S1(=O)=O` [piroxicam], in series [26], the “increase of the potency of the anti-cancer drug” value is “inactive”.

For `CC(=O)Oc1ccccc1C(=O)O` [aspirin], the “viability of B-cell CLL cells in vitro” value in series [27] is recorded as “reduced the viability”.

As to `O=C(O)c1ccccc1O` [salicylate], in [27], the “viability of B-cell CLL cells in vitro” value was “reduced the viability”.

As to `CCc1cccc2c3c([nH]c12)[C@@](CC)(CC(=O)O)OCC3` [Etodolac R], the anti-inflammatory activity result in series [28] is given as “No anti-inflammatory activity was discernible”. Also, the IC50 was 280 ± 20 µM in series [4] (read-out: IC50 cytotoxicity, HCT-116 (colon), MTT after three days continuous exposure); over 1000 µM in series [6] (read-out: IC50 cytotoxicity, A549 (lung), MTT after three days continuous exposure); over 1000 µM in series [13] (read-out: IC50 cytotoxicity, OVCAR-3 (ovarian), MTT after three days continuous exposure); 150 ± 15 µM in [17] (read-out: IC50 cytotoxicity, PC-3 (prostate), MTT after three days continuous exposure); over 1000 µM in [18] (read-out: IC50 cytotoxicity, MDA-MB-231 (breast), MTT after three days continuous exposure); over 1000 µM in [19] (read-out: IC50 cytotoxicity, Alva-31 (prostate), MTT after three days continuous exposure). Moreover, the IC50 in series [25] (read-out: IC50 cytotoxicity, LNCaP-FGC (prostate), MTT after three days continuous exposure) came out at 270 ± 50 µM. Moreover, the “maximal plasma concentration in a human subject (should yield)” value in series [29] is listed as “about 400 μM”. For the same molecule, in [12], the “Mcl-1 degradation by the enantiomers” value was “induced Mcl-1 degradation at equivalent concentrations”. Besides, the “activation of PPAR-γ reporter gene construct” value in series [30] is “activated”. The maximum plasma concentration result in series [23] (after a 200 mg dose in six elderly patients) is “about 33 μM”. In addition, in [23] (after the administration of RS-etodolac), the “plasma concentrations, fold higher than those of the S-enantiomer” value was “about 10 fold”.

With `CCc1cccc2c3c([nH]c12)C(CC)(CC(=O)O)OCC3` (stereo not drawn) [Etodolac S], the anti-inflammatory activity entry in series [28] was “almost all of the anti-inflammatory activity of the racemate”. The IC50 in [2] is 220 ± 20 µM; in series [3], over 1000 µM; in [5] it was over 1000 µM; in series [8], over 1000 µM; in series [14], over 1000 µM; in series [20], 420 ± 50 µM. The molecule further returned an IC50 in [22] of 800 µM. Also, the “Mcl-1 degradation by the enantiomers” value in [12] is “induced Mcl-1 degradation at equivalent concentrations”. In addition, the “activation of PPAR-γ reporter gene construct” value in series [30] was “activated”.

Take `COc1ccc2cc([C@H](C)C(=O)O)ccc2c1` [Naproxen]: the “increase of the potency of the anti-cancer drug” value in series [26] was “inactive”.

On to `CC(NC(=O)C(NC(=O)OCc1ccccc1)C(C)C)C(=O)NC(CC(=O)O)C(=O)CF` (stereo not drawn) [Z-VAD] (Cbz-Val-Ala-Asp-CH2F; configuration not given here), for which the “effect on the etodolac-induced fall in Bag-1 levels” value in series [10] is “did not prevent”. For the same molecule, the “effect on the etodolac-induced fall in Mcl-1 levels” value in [12] is listed as “did not prevent”.

Turning to `CC(C)C[C@@H](C=O)NC(=O)[C@H](CC(C)C)NC(=O)[C@H](CC(C)C)NC(=O)OCc1ccccc1` [MG-132] (Cbz-Leu-Leu-Leu-aldehyde), the “effect on the etodolac-induced fall in Bag-1 levels” value in series [10] was “prevented”. Also, in series [12], the “effect on the etodolac-induced fall in Mcl-1 levels” value is listed as “prevented”.

The values above are taken from patent publication US20040152672A1, “Indole compounds useful for the treatment of cancer” (priority 2000, published 2004).
